In PubChem BioAssay AID2060500 (Molecular Pharmacology Branch, DTP, NCI, 2025):

Tested on: 596521-263-R-J1-PDC complex spheroids, viability % of control
Experiment: Anticancer human tumor 596521-263-R-J1-PDC patient-derived soft tissue sarcoma cell line growth inhibition [GQUAD]
Settings: for IC50: curve of first compound; for viability, T/C: stronger effect = lower value; active = viability on the fitted dose curve at most 10% of control; inactive = the rest
Description: DNA G-quadruplex Stabilizer Agents in Combinations in Complex Spheroids
A high-throughput screen of multi-cell type tumor spheroids was designed to identify active combinations of DNA G-quadruplex stabilizer agents and targeted small molecules. Complex spheroids include a stromal component modeled by human endothelial cells (HUVEC) and fibroblasts modeled by human mesenchymal stem cells (MSCs). The concentration ranges selected for each drug and investigational agent were based upon clinically achievable concentrations if the clinical Cmax of the agent was known.
Compounds. The drugs and investigational agents: pidnarulex (CX-5461; NSC782164), APTO-253 (NSC789042), BRACO-19 (NSC847499), peposertib (NSC802822), ceralasertib (NSC780249), elimusertib (NSC800525), camonsertib (NSC841442), AZD-1390 (NSC803789), olaparib (NSC753686), talazoparib (NSC767125), ART-558 (NSC835418), sotorasib (NSC818433), MRTX-1133 (NSC836407), SN-38 (NSC673596), topotecan (NSC609699), etoposide (NSC141540), doxorubicin (NSC123127), gemcitabine (NSC613327), 5-fluorouracil (NSC19893), paclitaxel (NSC125973), vemurafenib (NSC761431), panobinostat (NSC761190), R-306465 (JNJ-16241199; NSC773264), adavosertib (NSC754352), TP-3654 (NSC805149), carboplatin (NSC241240), KSQ-4279 (NSC840948), and staurosporine (NSC755774) were obtained from the National Cancer Institute (NCI) Developmental Therapeutics Program Chemical Repository (34). The FDA-approved anticancer drug set is available from the NCI Developmental Therapeutics Program. […] The stock solutions were prepared in dimethyl sulfoxide (DMSO, Sigma-Aldrich, St. Louis, MO, cat. D2650) at 800-fold the tested concentration and stored at -70 degrees C prior to their use. All drugs and investigational agents were tested over a range starting from a high concentration at or near the clinical Cmax and decreasing in half-log increments. If the clinical Cmax for an agent had not been determined, the highest concentration tested was 10 microM.
2.3 Cell Culture. All cells were maintained in an incubator at 37 degrees C and 5% CO2 with 95% humidity. The PDC lines were cultured according to standard operating procedures established by the NCI PDMR. All PDCs were thawed and cultured in Matrigel-coated flasks prepared with a working solution of 1X Ham's F-12 nutrient mix, without supplementation (Invitrogen, cat. 11765054), 100 U/mL penicillin-streptomycin (Invitrogen, cat. 15140122), and 2.5% Matrigel (Corning Inc., cat. 354248) for the first three passages. The 857933-349-R-J2-PDC line was cultured in 6C/Colon 1B media, which includes advanced DMEM/F-12 (Thermo Fisher Scientific, cat. 12634028), 10 mM HEPES (Thermo Fisher Scientific, cat. 15630080), 1X GlutaMAX supplement (Thermo Fisher Scientific, cat. 35050061), 0.1 mg/mL primocin (InvivoGen, cat. ant-pm-2), 10% defined fetal bovine serum, heat inactivated (HyClone Laboratories Inc., cat. SH30070.03HI), 50% L-WRN conditioned media (ATCC, cat. CRL-3276), 1.25 mM N-Acetyl-L-cysteine (Sigma-Aldrich, cat. A9165), 10 mM nicotinamide (Sigma-Aldrich, cat. N0636), 1X B-27 supplement (Thermo Fisher Scientific, cat. 17504044), 1X N-2 supplement (Thermo Fisher Scientific, cat. 17502048), 10 microM Y-27632 dihydrochloride (Tocris Bioscience, cat. 1254), and 50 ng/mL human EGF recombinant protein (Thermo Fisher Scientific, cat. PHG0311). The 485176-168-R4-J1-PDC line was cultured in Panc media, which includes all 6C/Colon 1B media components plus 100 ng/mL human FGF-10 (Thermo Fisher Scientific, cat. 100-26), 500 nM SB-431542 (Selleckchem, cat. S1067), and gastrin (Tocris, cat. 3006).
[…]

[1] = second compound 0.0316 µM, first compound 0.0316 µM
[2] = second compound 0.0316 µM, first compound 0.1 µM
[3] = second compound 0.0316 µM, first compound 0.316 µM
[4] = second compound 0.0316 µM, first compound 1 µM
[5] = second compound 0.0316 µM, first compound 3.16 µM
[6] = second compound 0.0316 µM, first compound 10 µM
[7] = second compound 0.1 µM, first compound 0.0316 µM
[8] = second compound 0.1 µM, first compound 0.1 µM
[9] = second compound 0.1 µM, first compound 0.316 µM
[10] = second compound 0.1 µM, first compound 1 µM
[11] = second compound 0.1 µM, first compound 3.16 µM
[12] = second compound 0.1 µM, first compound 10 µM
[13] = second compound 0.316 µM, first compound 0.0316 µM
[14] = second compound 0.316 µM, first compound 0.1 µM
[15] = second compound 0.316 µM, first compound 0.316 µM
[16] = second compound 0.316 µM, first compound 1 µM
[17] = second compound 0.316 µM, first compound 3.16 µM
[18] = second compound 0.316 µM, first compound 10 µM
[19] = second compound 1 µM, first compound 0.0316 µM
[20] = second compound 1 µM, first compound 0.1 µM
[21] = second compound 1 µM, first compound 0.316 µM
[22] = second compound 1 µM, first compound 1 µM
[23] = second compound 1 µM, first compound 3.16 µM
[24] = second compound 1 µM, first compound 10 µM
[25] = second compound 3.16 µM, first compound 0.0316 µM
[26] = second compound 3.16 µM, first compound 0.1 µM
[27] = second compound 3.16 µM, first compound 0.316 µM
[28] = second compound 3.16 µM, first compound 1 µM
[29] = second compound 3.16 µM, first compound 3.16 µM
[30] = second compound 3.16 µM, first compound 10 µM
[31] = second compound 10 µM, first compound 0.0316 µM
[32] = second compound 10 µM, first compound 0.1 µM
[33] = second compound 10 µM, first compound 0.316 µM
[34] = second compound 10 µM, first compound 1 µM
[35] = second compound 10 µM, first compound 3.16 µM
[36] = second compound 10 µM, first compound 10 µM
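Also: spheroids exposed to drugs for 7 days before viability reading.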

C#Cc1c(F)ccc2cc(O)cc(-c3ncc4c(N5CC6CCC(C5)N6)nc(OCC56CCCN5CC(F)C6)nc4c3F)c12 (stereo unspecified) + Cc1cnc(CNC(=O)c2c(=O)c3ccc(N4CCCN(C)CC4)nc3n3c2sc2ccccc23)cn1
> 10 µM: IC50 (second compound 0.0316 µM) | IC50 (second compound 0.1 µM) | IC50 (second compound 0.316 µM) | IC50 (second compound 1 µM) | IC50 (second compound 3.16 µM)
inactive: viability, T/C [1] 93.2% | viability, T/C [2] 94.4% | viability, T/C [3] 101% | viability, T/C [4] 88% | viability, T/C [5] 98.5% | viability, T/C [6] 90.7% | viability, T/C [7] 92.9% | viability, T/C [8] 74.9% | viability, T/C [9] 76.7% | viability, T/C [10] 93.5% | viability, T/C [11] 90.8% | viability, T/C [12] 82.9% | viability, T/C [13] 72.5% | viability, T/C [14] 74.6% | viability, T/C [15] 70.4% | viability, T/C [16] 93.3% | viability, T/C [17] 91.8% | viability, T/C [18] 66.7% | viability, T/C [19] 60.7% | viability, T/C [20] 60.8% | viability, T/C [21] 61.4% | viability, T/C [22] 66.3% | viability, T/C [23] 67.4% | viability, T/C [24] 52.5% | viability, T/C [25] 56.4% | viability, T/C [26] 49.2% | viability, T/C [27] 49.8% | viability, T/C [28] 57% | viability, T/C [29] 50.9% | viability, T/C [30] 54% | viability, T/C [31] 36.3% | viability, T/C [32] 14.9% | viability, T/C [33] 39.6% | viability, T/C [34] 40.7% | viability, T/C [35] 36.9% | viability, T/C [36] 0.57%
< 0.0316 µM: IC50 (second compound 10 µM)

Cn1ncnc1[C@H]1c2n[nH]c(=O)c3cc(F)cc(c23)N[C@@H]1c1ccc(F)cc1 + Cc1cnc(CNC(=O)c2c(=O)c3ccc(N4CCCN(C)CC4)nc3n3c2sc2ccccc23)cn1
0.103 µM: IC50 (second compound 10 µM)
inactive: viability, T/C (second compound 0.0316 µM, first compound 0.000999 µM) 108% | viability, T/C (second compound 0.0316 µM, first compound 0.00316 µM) 83.4% | viability, T/C (second compound 0.0316 µM, first compound 0.00999 µM) 94.5% | viability, T/C [1] 90.2% | viability, T/C (second compound 0.0316 µM, first compound 0.0999 µM) 90.2% | viability, T/C [3] 71.2% | viability, T/C (second compound 0.1 µM, first compound 0.000999 µM) 88.5% | viability, T/C (second compound 0.1 µM, first compound 0.00316 µM) 84% | viability, T/C (second compound 0.1 µM, first compound 0.00999 µM) 72.3% | viability, T/C [7] 81.2% | viability, T/C (second compound 0.1 µM, first compound 0.0999 µM) 74.6% | viability, T/C [9] 64.7% | viability, T/C (second compound 0.316 µM, first compound 0.000999 µM) 81.3% | viability, T/C (second compound 0.316 µM, first compound 0.00316 µM) 71.1% | viability, T/C (second compound 0.316 µM, first compound 0.00999 µM) 86.4% | viability, T/C [13] 68.5% | viability, T/C (second compound 0.316 µM, first compound 0.0999 µM) 76% | viability, T/C [15] 65.9% | viability, T/C (second compound 1 µM, first compound 0.000999 µM) 74.1% | viability, T/C (second compound 1 µM, first compound 0.00316 µM) 66.2% | viability, T/C (second compound 1 µM, first compound 0.00999 µM) 60.5% | viability, T/C [19] 53.7% | viability, T/C (second compound 1 µM, first compound 0.0999 µM) 60% | viability, T/C [21] 59.7% | viability, T/C (second compound 3.16 µM, first compound 0.000999 µM) 55.9% | viability, T/C (second compound 3.16 µM, first compound 0.00316 µM) 56.4% | viability, T/C (second compound 3.16 µM, first compound 0.00999 µM) 54% | viability, T/C [25] 55.7% | viability, T/C (second compound 3.16 µM, first compound 0.0999 µM) 56.5% | viability, T/C [27] 53% | viability, T/C (second compound 10 µM, first compound 0.000999 µM) 52.9% | viability, T/C (second compound 10 µM, first compound 0.00316 µM) 40.3% | viability, T/C (second compound 10 µM, first compound 0.00999 µM) 56.2% | viability, T/C [31] 50.1% | viability, T/C (second compound 10 µM, first compound 0.0999 µM) 52.8% | viability, T/C [33] 32.2%
> 0.316 µM: IC50 (second compound 0.0316 µM) | IC50 (second compound 0.1 µM) | IC50 (second compound 0.316 µM) | IC50 (second compound 1 µM) | IC50 (second compound 3.16 µM)

O=C(NO)c1cnc(N2CCN(S(=O)(=O)c3ccc4ccccc4c3)CC2)nc1 + Cc1cnc(CNC(=O)c2c(=O)c3ccc(N4CCCN(C)CC4)nc3n3c2sc2ccccc23)cn1
active: viability, T/C [4] 0.6% | viability, T/C [5] 0.3% | viability, T/C [6] 0.28% | viability, T/C [10] 0.78% | viability, T/C [11] 0.32% | viability, T/C [12] 0.29% | viability, T/C [16] 0.46% | viability, T/C [17] 0.21% | viability, T/C [18] 0.18% | viability, T/C [22] 0.17% | viability, T/C [23] 0.77% | viability, T/C [24] 1.29% | viability, T/C [28] 0.13% | viability, T/C [29] 0.4% | viability, T/C [30] 0.75% | viability, T/C [33] 0.25% | viability, T/C [34] 0.16% | viability, T/C [35] 0.89% | viability, T/C [36] 0.27%
0.11 µM: IC50 (second compound 0.316 µM)
< 0.0316 µM: IC50 (second compound 3.16 µM) | IC50 (second compound 10 µM)
inactive: viability, T/C [1] 74.7% | viability, T/C [2] 53.5% | viability, T/C [3] 13% | viability, T/C [7] 71.5% | viability, T/C [8] 50.3% | viability, T/C [9] 17.4% | viability, T/C [13] 66.5% | viability, T/C [14] 52.4% | viability, T/C [15] 19.1% | viability, T/C [19] 53.9% | viability, T/C [20] 50.6% | viability, T/C [21] 19.6% | viability, T/C [25] 48.6% | viability, T/C [26] 42.5% | viability, T/C [27] 16.1% | viability, T/C [31] 23.6% | viability, T/C [32] 13.2%
0.104 µM: IC50 (second compound 1 µM)
0.111 µM: IC50 (second compound 0.0316 µM)
0.102 µM: IC50 (second compound 0.1 µM)
